Data on ten compounds can be found in patent publication US7585895B2, “Therapeutic substituted cyclopentanes” (Allergan, Inc., priority 2005, dated 2009).

Experiment [1] deals with T1, hEP1 (Homo sapiens, UniProt P34995).
T1 construct: expressed in transfected cells
T1 sequence (P34995 1-402): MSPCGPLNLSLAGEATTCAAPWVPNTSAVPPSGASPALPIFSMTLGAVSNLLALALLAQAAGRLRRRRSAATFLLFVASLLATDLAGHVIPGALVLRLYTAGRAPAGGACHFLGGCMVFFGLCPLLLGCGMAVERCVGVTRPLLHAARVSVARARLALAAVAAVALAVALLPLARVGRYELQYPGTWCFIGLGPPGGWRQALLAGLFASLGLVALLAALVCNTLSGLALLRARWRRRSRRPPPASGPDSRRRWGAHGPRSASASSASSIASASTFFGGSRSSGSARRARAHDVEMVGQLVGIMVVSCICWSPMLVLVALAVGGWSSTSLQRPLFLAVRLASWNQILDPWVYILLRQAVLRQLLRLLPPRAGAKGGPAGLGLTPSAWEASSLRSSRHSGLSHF
Put plainly: FLIPR calcium signal, EP1. The note with it: HEK-293(EBNA). It counts as cell-based. As to the method: (§1) HEK-293(EBNA) cells, stably expressing one type or subtype of recombinant human prostaglandin receptors (prostaglandin receptors expressed: hDP/Gqs5; hEP1; hEP2/Gqs5; hEP3A/Gqi5; hEP4/Gqs5; hFP; hIP; hTP), were cultured in 100 mm culture dishes in high-glucose DMEM medium containing 10% fetal bovine serum, 2 mM 1-glutamine, 250 μg/ml geneticin (G418) and 200 μg/ml hygromycin B as selection markers, and 100 units/ml penicillin G, 100 μg/ml streptomycin and 0.25 μg/ml amphotericin B.
(§2) Cells were seeded at a density of 5×10^4 cells per well in Biocoat® Poly-D-lysine-coated black-wall, clear-bottom 96-well plates (Becton-Dickinson) and allowed to attach overnight in an incubator at 37° C. Cells were then washed two times with HBSS-HEPES buffer (Hanks Balanced Salt Solution without bicarbonate and phenol red, 20 mM HEPES, pH 7.4) using a Denley Cellwash plate washer (Labsystems). After 45 minutes of dye-loading in the dark, using the calcium-sensitive dye Fluo-4 AM at a final concentration of 2 μM, plates were washed four times with HBSS-HEPES buffer to remove excess dye leaving 100 μl in each well. Plates were re-equilibrated to 37° C. for a few minutes.
(§3) Cells were excited with an Argon laser at 488 nm, and emission was measured through a 510-570 nm bandwidth emission filter (FLIPR™, Molecular Devices, Sunnyvale, Calif.). Drug solution was added in a 50 μl volume to each well to give the desired final concentration. The peak increase in fluorescence intensity was recorded for each well. On each plate, four wells each served as negative (HBSS-HEPES buffer) and positive controls (standard agonists: BW245C (hDP); PGE2 (HEP1; hEP2/Gqs5; hEP3A/Gqi5; hEP4/Gqs5); PGF2α (hFP); carbacyclin (hIP); U-46619 (hTP), depending on receptor). The peak fluorescence change in each drug-containing well was then expressed relative to the controls.
(§4) Compounds were tested in a high-throughput (HTS) or concentration-response (CoRe) format. In the HTS format, forty-four compounds per plate were examined in duplicates at a concentration of 10^−5 M. To generate concentration-response curves, four compounds per plate were tested in duplicates in a concentration range between 10^−5 and 10^−11 M. The duplicate values were averaged. In either, HTS or CoRe format each compound was tested on at least 3 separate plates using cells from different passages to give an n≧3.

Experiment [2] has as its target T2, EP4 receptors (Homo sapiens, UniProt P35408).
T2 construct: expressed in transfected cells; membrane pellet
Put plainly: Radioligand binding, [3H]PGE2, EP4 (Ki). The note with it: HEK-293 cells stably expressing EP4, [3H]PGE2. As to the method:
HEK-293 cells stably expressing the human or feline FP receptor, or EP1, EP2, or EP4 receptors were washed with TME buffer, scraped from the bottom of the flasks, and homogenized for 30 sec using a Brinkman PT 10/35 polytron. TME buffer was added to achieve a final 40 ml volume in the centrifuge tubes (the composition of TME is 100 mM TRIS base, 20 mM MgCl2, […]; 10N HCl is added to achieve a pH of 7.4).
The cell homogenate was centrifuged at 19000 r.p.m. for 20 min at 4° C using a Beckman Ti-60 rotor. The resultant pellet was resuspended in TME buffer to give a final 1 mg/ml protein concentration, as determined by Biorad assay. Radioligand binding competition assays vs. [^3H-]17-phenyl PGF2α. (5 nM) were performed in a 100 μl volume for 60 min. Binding reactions were started by adding plasma membrane fraction. The reaction was terminated by the addition of 4 ml ice-cold TRIS-HCl buffer and rapid filtration through glass fiber GF/B filters using a Brandel cell harvester. The filters were washed 3 times with ice-cold buffer and oven dried for one hour.
[^3H-] PGE2 (specific activity 180 Ci mmol) was used as the radioligand for EP receptors. [^3H] 17-phenyl PGF2α, was employed for FP receptor binding studies. Binding studies employing EP1, EP2, EP4 and FP receptors were performed in duplicate in at least three separate experiments. A 200 μl assay volume was used. Incubations were for 60 min at 25° C. and were terminated by the addition of 4 ml of ice-cold 50 mM TRIS-HCl, followed by rapid filtration through Whatman GF/B filters and three additional 4 ml washes in a cell harvester (Brandel). Competition studies were performed using a final concentration of 5 nM [^3H]-PGE2, or 5 nM [^3H] 17-phenyl PGF2αand non-specific binding determined with 10^−5M of unlabeled PGE2, or 17-phenyl PGF2α, according to receptor subtype studied.

In experiment [3] the target is T3, hIP (Homo sapiens, UniProt P43119).
T3 construct: expressed in transfected cells
T3 sequence (P43119 whole entry): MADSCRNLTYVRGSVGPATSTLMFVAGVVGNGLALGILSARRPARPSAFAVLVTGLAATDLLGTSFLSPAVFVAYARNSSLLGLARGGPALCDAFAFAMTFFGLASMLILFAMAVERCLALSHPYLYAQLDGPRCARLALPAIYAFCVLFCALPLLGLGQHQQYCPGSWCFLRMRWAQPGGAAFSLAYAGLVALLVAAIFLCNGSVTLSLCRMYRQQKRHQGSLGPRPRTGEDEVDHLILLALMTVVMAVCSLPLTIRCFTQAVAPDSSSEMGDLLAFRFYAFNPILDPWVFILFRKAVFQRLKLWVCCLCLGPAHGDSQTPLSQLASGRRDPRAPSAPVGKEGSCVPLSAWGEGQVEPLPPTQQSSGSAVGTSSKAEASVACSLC
The experiment is described as follows: FLIPR calcium signal, IP. It counts as cell-based. The note with it: HEK-293(EBNA); for EC50: read-out: Ca2+ Signal-EC50 (nM) IP. How it is done:
as §1, §2, §3, §4

Experiment [4] concerns the target T4, hEP3A/Gqi5 (Homo sapiens, UniProt P43115).
T4 construct: expressed in transfected cells
T4 sequence (P43115 1-390): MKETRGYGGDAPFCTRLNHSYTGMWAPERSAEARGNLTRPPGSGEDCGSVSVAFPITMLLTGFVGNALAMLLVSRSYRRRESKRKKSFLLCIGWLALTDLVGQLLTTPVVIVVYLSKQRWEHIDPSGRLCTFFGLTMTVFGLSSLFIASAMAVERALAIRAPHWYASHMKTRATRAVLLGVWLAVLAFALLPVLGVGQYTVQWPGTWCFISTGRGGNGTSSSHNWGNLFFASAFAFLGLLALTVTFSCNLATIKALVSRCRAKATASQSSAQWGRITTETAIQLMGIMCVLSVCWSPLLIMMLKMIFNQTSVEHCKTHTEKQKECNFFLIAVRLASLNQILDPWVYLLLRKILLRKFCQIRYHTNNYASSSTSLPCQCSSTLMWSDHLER
The experiment is described as follows: FLIPR calcium signal, EP3. It counts as cell-based. The note with it: HEK-293(EBNA); for EC50: read-out: Ca2+ Signal-EC50 (nM) EP3. How it is done: as §1, §2, §3, §4

For experiment [5], the target named is T5, hEP4/Gqs5 (Homo sapiens, UniProt P35408).
T5 construct: expressed in transfected cells
T5 sequence (P35408 whole entry): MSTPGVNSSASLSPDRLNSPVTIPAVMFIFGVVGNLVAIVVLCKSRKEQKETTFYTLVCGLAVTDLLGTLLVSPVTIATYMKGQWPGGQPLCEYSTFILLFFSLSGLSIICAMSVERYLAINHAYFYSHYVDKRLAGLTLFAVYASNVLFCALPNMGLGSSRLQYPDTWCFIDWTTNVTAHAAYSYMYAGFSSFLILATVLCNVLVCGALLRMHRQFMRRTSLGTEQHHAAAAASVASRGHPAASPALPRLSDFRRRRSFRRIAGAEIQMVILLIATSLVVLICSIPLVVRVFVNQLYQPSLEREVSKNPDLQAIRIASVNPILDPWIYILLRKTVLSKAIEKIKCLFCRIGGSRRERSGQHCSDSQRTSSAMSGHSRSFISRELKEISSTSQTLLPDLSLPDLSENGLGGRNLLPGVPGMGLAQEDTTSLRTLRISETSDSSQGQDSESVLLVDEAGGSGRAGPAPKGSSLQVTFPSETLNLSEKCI
The experiment is described as follows: FLIPR calcium signal, EP4. It counts as cell-based. The note with it: HEK-293(EBNA); for EC50: read-out: Ca2+ Signal-EC50 (nM) EP4. How it is done: as §1, §2, §3, §4

T2 sequence (P35408 whole entry): as above

For the compound `CCCCCC(O)c1ccc([C@@H]2[C@@H](C/C=C\CCCC(=O)O)[C@H](F)C[C@H]2O)cc1` (mixture of isomers) [Entry 8, (Z)-7-{(1R,2S,3R,5R)-5-Fluoro-3-hydroxy-2-[4-(1-hydroxy-hexyl)-phenyl]-cyclopentyl}-hept-5-enoic acid], the “Ca2+ Signal-EC50 (nM) EP1” value in experiment [1] was “not active”. Moreover, the inhibition constant (Ki) in experiment [2] is more than 10000 nM. In addition, the EC50 stood at 10100 nM in experiment [3] and 1450 nM in experiment [4]. Further, in experiment [5], the “Ca2+ Signal-EC50 (nM) EP4” value is “not active”.

Consider `CCCCCC(O)c1ccc([C@@H]2[C@@H](C/C=C\CCCC(=O)O)[C@H](Cl)C[C@H]2O)cc1` (mixture of isomers) [Entry 11, (Z)-7-{(1R,2S,3R,5R)-5-Chloro-3-hydroxy-2-[4-(1-hydroxy-hexyl)-phenyl]-cyclopentyl}-hept-5-enoic acid], for which the “Ca2+ Signal-EC50 (nM) EP1” value in experiment [1] is “not active”. The compound further yielded a Ki in experiment [2] of more than 10000 nM. Also, in experiment [3], the “Ca2+ Signal-EC50 (nM) IP” value was “not active”. The EC50 is 456 nM in experiment [4] and more than 10000 nM in experiment [5].

Take `O=C(O)CCC/C=C\C[C@@H]1[C@@H](c2ccc(C(O)CC3CCCCC3)cc2)[C@H](O)C[C@H]1Cl` (mixture of isomers) [Entry 17, (Z)-7-{(1R,2S,3R,5R)-5-Chloro-2-[4-(2-cyclohexyl-1-hydroxy-ethyl)-phenyl]-3-hydroxy-cyclopentyl}-hept-5-enoic acid]: the “Ca2+ Signal-EC50 (nM) EP1” value in experiment [1] is “not active”. Besides, in experiment [2], the affinity corresponds to a Ki of 15900 nM. In addition, in experiment [3], the “Ca2+ Signal-EC50 (nM) IP” value was “not active”. The “Ca2+ Signal-EC50 (nM) EP3” value in experiment [4] is “not active”. Besides, the “Ca2+ Signal-EC50 (nM) EP4” value in experiment [5] is “not active”.

In the case of `CC(C)(C)CCCC(O)c1ccc([C@@H]2[C@@H](CCCCCCC(=O)O)[C@H](Cl)C[C@H]2O)cc1` (mixture of isomers) [Entry 20, 7-{(1R,2S,3R,5R)-5-Chloro-3-hydroxy-2-[4-(1-hydroxy-5,5-dimethyl-hexyl)-phenyl]-cyclopentyl}-heptanoic acid], the “Ca2+ Signal-EC50 (nM) EP1” value in experiment [1] is given as “not active”. Further, in experiment [2], affinity was put at a Ki of 3800 nM. Also, the “Ca2+ Signal-EC50 (nM) IP” value in experiment [3] is given as “not active”. Also, the EC50 is 4450 nM in experiment [4] and 10700 nM in experiment [5].

Regarding `O=C(O)CCC/C=C\C[C@@H]1[C@@H](c2ccc(C(O)Cc3ccccc3)cc2)[C@H](O)C[C@H]1Cl` (mixture of isomers) [Entry 21, (Z)-7-{(1R,2S,3R,5R)-5-Chloro-3-hydroxy-2-[4-(1-hydroxy-2-phenyl-ethyl)-phenyl]-cyclopentyl}-hept-5-enoic acid], the “Ca2+ Signal-EC50 (nM) EP1” value in experiment [1] is “not active”. In experiment [2], this compound had a Ki of more than 10000 nM. In experiment [3], the “Ca2+ Signal-EC50 (nM) IP” value is reported as “not active”. Further, the “Ca2+ Signal-EC50 (nM) EP3” value in experiment [4] is on record as “not active”. The EC50 in experiment [5] is more than 10000 nM.

As for `CCCCC(O)c1ccc([C@@H]2[C@@H](C/C=C\CCCC(=O)O)[C@H](Cl)C[C@H]2O)cc1` (mixture of isomers) [Entry 27, (Z)-7-{(1R,2S,3R,5R)-5-Chloro-3-hydroxy-2-[4-(1-hydroxy-pentyl)-phenyl]-cyclopentyl}-hept-5-enoic acid], in experiment [1], the “Ca2+ Signal-EC50 (nM) EP1” value is “not active”. Further, in experiment [3], the “Ca2+ Signal-EC50 (nM) IP” value is “not active”. The “Ca2+ Signal-EC50 (nM) EP3” value in experiment [4] is “not active”. Also, the “Ca2+ Signal-EC50 (nM) EP4” value in experiment [5] is recorded as “not active”.

`CCCCC(O)C(C)(C)c1ccc([C@@H]2[C@@H](C/C=C\CCCC(=O)O)[C@H](Cl)C[C@H]2O)cc1` (mixture of isomers) [Entry 32, (Z)-7-{(1R,2S,3R,5R)-5-Chloro-3-hydroxy-2-[4-(2-hydroxy-1,1-dimethyl-hexyl)-phenyl]-cyclopentyl}-hept-5-enoic acid]: the “Ca2+ Signal-EC50 (nM) EP1” value in experiment [1] was “not active”. The inhibitory constant (Ki) in experiment [2] came out at 9640 nM. Besides, the “Ca2+ Signal-EC50 (nM) IP” value in experiment [3] was “not active”. Besides, the half-maximal effective concentration (EC50) in experiment [4] amounted to 2810 nM. The “Ca2+ Signal-EC50 (nM) EP4” value in experiment [5] was “not active”.

As to `CCCCCC(O)c1ccc([C@@H]2[C@@H](Cc3cccc(CCC(=O)O)c3)[C@H](Cl)C[C@H]2O)cc1` (stereo partly drawn) [Entry 3, 3-(3-{(1R,2S,3R,5R)-5-Chloro-3-hydroxy-2-[4-(1-hydroxy-hexyl)-phenyl]-cyclopentylmethyl}-phenyl)-propionic acid], the “Ca2+ Signal-EC50 (nM) EP1” value in experiment [1] is “not active”. In experiment [2], this compound had a Ki of 3950 nM. Moreover, the “Ca2+ Signal-EC50 (nM) IP” value in experiment [3] is “not active”. In addition, in experiment [4], the concentration for a half-maximal effect (EC50) came to 4670 nM.

Regarding `CCCCCC(O)c1ccc([C@@H]2[C@@H](CCCc3ncc(C(=O)O)s3)[C@H](Cl)C[C@H]2O)cc1` (stereo partly drawn) [Entry 5, 2-(3-{(1R,2S,3R,5R)-5-Chloro-3-hydroxy-2-[4-(1-hydroxy-hexyl)-phenyl]-cyclopentyl}-propyl)-thiazole-5-carboxylic acid], the “Ca2+ Signal-EC50 (nM) EP1” value in experiment [1] is given as “not active”. In addition, the “Ca2+ Signal-EC50 (nM) IP” value in experiment [3] is reported as “not active”. Further, in experiment [4], the “Ca2+ Signal-EC50 (nM) EP3” value is listed as “not active”. For the same compound, the EC50 in experiment [5] is more than 10000 nM.

As to `CCCCCC(O)c1ccc([C@@H]2[C@@H](C/C=C\CCCC(=O)O)[C@H](Cl)C[C@@H]2O)cc1` (stereo partly drawn) [Entry 34, (Z)-7-{(1R,2S,3S,5R)-5-Chloro-3-hydroxy-2-[4-(1-hydroxy-hexyl)-phenyl]-cyclopentyl}-hept-5-enoic acid], in experiment [1], the “Ca2+ Signal-EC50 (nM) EP1” value is “not active”. The concentration giving a half-maximal response (EC50) in experiment [3] was 3280 nM; in experiment [4], 25 nM. Besides, the “Ca2+ Signal-EC50 (nM) EP4” value in experiment [5] was “not active”.

The term Ki denotes a measure of affinity in units of concentration, obtained from inhibition or displacement. Lower therefore signals higher affinity. A word on the EC50: it is the concentration needed to bring the measured effect to its halfway point.
